From US8445476B2, “Carbacephem β-lactam antibiotics” (Achaogen, Inc., priority 2007, dated 2013)
Converted amounts (≈) assume the structure as drawn. Read-outs that look alike come from different tables or passages of the source.

Columns and labels:
[1] = tested on: S. aureus ASAU001 (Susceptible Organism ATCC 29213); experiment: MIC assay, S. aureus ASAU001; assay type: cell-based; settings: Staphylococcus aureus, ATCC29213, read-out: MIC ASAU 001
Protocol: (§1) The in vitro MIC for bacterial isolates may be obtained in the following manner: a test compound is incorporated into a series of two-fold dilutions in cation adjusted Mueller-Hinton broth (CAMHB). Different bacterial strains diluted to provide a uniform inoculum are added to the CAMHB containing test compounds. A well without test compound is included for each strain as a growth control. […] The procedures used in these experiments are generally those standardized by the Clinical and Laboratory Standards Institute (CLSI), as set forth in the CLSI publication entitled “M7-A7. Methods for dilution antimicrobial susceptibility tests for bacteria that grow aerobically; approved standard-seventh edition.” (2006), which is incorporated by reference as if fully set forth herein. The following exemplifies such a procedure although it is to be understood that modifications of the procedure may be implemented as required.
(§2) Two-fold dilutions of the test compounds are prepared in CAMHB at 2× the concentration range to be tested if the compounds are soluble in aqueous solution. Alternately, dimethylsulfoxide (DMSO) is used to prepare two-fold dilutions at 10× the concentration range to be tested. Reference drugs such as cefotaxime, vancomycin or imipenem are used as positive controls. A few isolated colonies are retrieved from a pure culture prepared on an agar plate and suspended in PBS until the turbidity of the suspension matches a 0.5 McFarland standard which is equal to approximately 10^8 sCFU/mL. This solution is further diluted in CAMHB to 10^6CFU/mL if compounds are diluted in CAMHB and 5×10^5 CFU/mL if compounds are diluted in DMSO. The CAMHB plates containing the compound dilutions are combined in equal volumes with the higher density inoculum, or 10 μL of the DMSO dilutions are added to the lower density inoculum. When S. aureus is the organism being tested and the compound is oxacillin, a beta-lactam or a carbacephem compound of the present invention, 2% NaCl is added to the growth media. The plates are then incubated for 16-20 hours at 35° C. The plates are then observed to determine which concentration of the test compound is the MIC.

[2] = tested on: Staphylococcus aureus Methicillin Resistance (MRSA) (ATCC 33591); settings: 160 mg/kg/day, dosed 4 times per day, previously reported (Craig et al.); cited from earlier work
[3] = tested on: S. aureus ASAU002 (MRSA ATCC 33591); settings: previously reported (Craig et al.); cited from earlier work
[4] = previously reported (Griffith et al.); cited from earlier work
[5] = tested on: S. aureus ASAU002 (MRSA ATCC 33591); experiment: MIC assay, S. aureus ASAU002; assay type: cell-based; settings: Staphylococcus aureus
Protocol: as §1, §2

[6] = tested on: S. aureus ASAU1043 (MRSA, CIP, ERY, CLI, GEN resistant); experiment: MIC assay, S. aureus ASAU1043; assay type: cell-based; settings: Staphylococcus aureus, read-out: MIC ASAU 1043
Protocol: as §1, §2

[7] = Pharmacokinetic study in rats; assay type: in vivo; settings: male, Sprague-Dawley, rat
Protocol: Male cannulated Sprague-Dawley rats (˜250 g) are administered test compounds by IV, PO, or SC routes. All animals are weighed prior to dose administration. Blood (˜0.25 mL) is collected by cannula transferred into microtainer tubes containing EDTA at time points 2 (I.V. animals only), 5, 15, 30, 60, 120, 240, 360, 480, 1440 minutes. After collection, the blood samples are centrifuged at approximately 1000×g at 2-8° C. for approximately 10 minutes. Each plasma specimen is collected, aliquoted into cluster tubes, and stored at ˜−20° C. until analysis.

[8] = tested on: Staphylococcus aureus Methicillin Resistance (MRSA) (ATCC 33591); experiment: Neutropenic mouse infected thigh model; assay type: in vivo, mice
Protocol: Groups of 6 male specific-pathogen-free CD-1 mice weighing 22±2 g are used. Animals are rendered immunosuppressedion by two intraperitoneal injections of cyclophosphamide, the first at 150 mg/kg 4 days before infection (day −4) and the second at 100 mg/kg 1 day before infection (day −1). On day 0, animals are inoculated intramuscularly (0.1 ml/thigh) with 1×10^5 CFU/mouse of Staphylococcus aureus Methicillin Resistance (MRSA) (ATCC 33591) into right thigh. Vehicle and/or test substances are then administered (IV, SC, or PO) 2 hours later. At 26 hours after inoculation, muscle of the right thigh is harvested from each of the survival test animals. The removed muscle tissues are then homogenized in 3 to 4 ml of PBS, pH 7.4 with a ceramic mortar. Homogenates of 0.1 ml are used for serial 10-fold dilutions and plated on Muller Hinton Broth in 1.5% Bacto® Agar for CFU determination. Decrease of the CFU/g muscle of right thigh in 99 percent or more (≧99) of the animals indicates significant activity. See, e.g., Andes, D. et al., Antimicrobial Agents and Chemotherapy, 46: 1665-1670 (2002); and Griffith, D. C., et al., Antimicrobial Agents and Chemotherapy, 50: 1628-1632 (2006).
Test compounds were dosed s.c. at 60, 120 or 240 mg/kg/day, except vancomycin at a single dose level of 220 mg/kg/day.

[9] = tested on: S. aureus ASAU1033 (MRSA, CIP, ERY, CLIN, TET, GEN resistant); experiment: MIC assay, S. aureus ASAU1033; assay type: cell-based; settings: Staphylococcus aureus, read-out: MIC ASAU 1033
Protocol: as §1, §2

[10] = tested on: S. aureus ASAU1028 (CA-MRSA, USA400); experiment: MIC assay, S. aureus ASAU1028; assay type: cell-based; settings: Staphylococcus aureus, read-out: MIC ASAU 1028
Protocol: as §1, §2

[11] = tested on: S. aureus ASAU1029 (CA-MRSA, USA300); experiment: MIC assay, S. aureus ASAU1029; assay type: cell-based; settings: Staphylococcus aureus, read-out: MIC ASAU 1029
Protocol: as §1, §2

[12] = S. aureus ASAU002, MRSA ATCC 33591, read-out: MIC ASAU 002

MIC [1] [µg/mL] | MIC [5, 12] [µg/mL] | MIC [6] [µg/mL] | MIC [9] [µg/mL] | MIC [10] [µg/mL] | MIC [11] [µg/mL] | SMILES | log kill in CFU count [2] [log kill] | MIC [3] [µg/mL] | T1/2 [4] [h] | Vss [4] [L/kg] | time uncorrected plasma concentrations are above the MIC ([7]; in vivo, 10 mg/kg) [h] | half-life ([7]; plasma, rats, 10 mg/kg IV) [min] | Vd ([7]; plasma, rats, 10 mg/kg IV, read-out: volume of distribution Vss) [L/kg] | log kill (CFU) in thigh ([8]; s.c., lowest dose of 60 mg/kg/day (TID 20 mg/kg/8 h)) [log kill] | efficacy compared with vancomycin ([8]; vancomycin 220 mg/kg/day (BID 110 mg/kg/12 h)) | MIC ([5]; strain used in the infected thigh model (ATCC 33591), read-out: MIC) [µg/mL]
≤ 1 | ≤ 1 | – | – | – | – | Nc1nnc(SC2=C(C(=O)O)N3C(=O)[C@@H](NC(=O)/C(=N\O)c4nc(N)sc4Cl)[C@H]3CC2)s1 [Comparative Compound 2] | 3 | 1 (≈ 1.93 µM) | 1.47 | 0.91 | – | – | – | – | – | –
≤ 1 | > 8 | > 8 | > 8 | 1 to 8 (≈ 2 to 16 µM) | 1 to 8 (≈ 2 to 16 µM) | Nc1nc(/C(=N/O)C(=O)N[C@@H]2C(=O)N3C(C(=O)O)=C(Sc4cscn4)CC[C@H]23)c(Cl)s1 [35/1, (6R,7S,Z)-7-(2-(2-amino-5-chlorothiazol-4-yl)-2-(hydroxyimino)acetamido)-8-oxo-3-(thiazol-4-ylthio)-1-aza-bicyclo[4.2.0]oct-2-ene-2-carboxylic Acid] | – | – | – | – | – | – | – | – | – | –
≤ 1 | 1 to 8 (≈ 1.87 to 15 µM) | 1 to 8 (≈ 1.87 to 15 µM) | 1 to 8 (≈ 1.87 to 15 µM) | 1 to 8 (≈ 1.87 to 15 µM) | ≤ 1 | Nc1nc(/C(=N\O)C(=O)NC2C(=O)N3C(C(=O)O)=C(/C=C4\CCN(C5CCNC5)C4=O)CS[C@H]23)ns1 (some centres unmarked) [Comparative Compound 1, reference compound] | – | – | – | – | – | – | – | – | – | –
≤ 1 | 1 to 8 (≈ 2.02 to 16.2 µM) | 1 to 8 (≈ 2.02 to 16.2 µM) | 1 to 8 (≈ 2.02 to 16.2 µM) | ≤ 1 | ≤ 1 | Nc1nc(/C(=N/O)C(=O)N[C@@H]2C(=O)N3C(C(=O)O)=C(Sc4ccncc4)CC[C@H]23)c(Cl)s1 [27/1, (6R,7S,Z)-7-(2-(2-amino-5-chlorothiazol-4-yl)-2-(hydroxyimino)acetamido)-8-oxo-3-(pyridin-4-ylthio)-1-aza-bicyclo[4.2.0]oct-2-ene-2-carboxylic Acid] | – | – | – | – | – | – | – | – | – | –
≤ 1 | 1 to 8 (≈ 1.89 to 15.1 µM) | 1 to 8 (≈ 1.89 to 15.1 µM) | 1 to 8 (≈ 1.89 to 15.1 µM) | 1 to 8 (≈ 1.89 to 15.1 µM) | ≤ 1 | Cc1nc(SC2=C(C(=O)O)N3C(=O)[C@@H](NC(=O)/C(=N\O)c4nc(N)sc4Cl)[C@H]3CC2)sc1C [33/1, (6R,7S,Z)-7-(2-(2-amino-5-chlorothiazol-4-yl)-2-(hydroxyimino)acetamido)-3-(4,5-dimethylthiazol-2-ylthio)-8-oxo-1-aza-bicyclo[4.2.0]oct-2-ene-2-carboxylic Acid] | – | – | – | – | – | – | – | – | – | –
≤ 1 | 1 to 8 (≈ 1.6 to 12.8 µM) | > 8 | 1 to 8 (≈ 1.6 to 12.8 µM) | 1 to 8 (≈ 1.6 to 12.8 µM) | 1 to 8 (≈ 1.6 to 12.8 µM) | CO/N=C(\C(=O)N[C@@H]1C(=O)N2C(C(=O)O)=C(Sc3cccnc3CSC3CCNC3)CC[C@H]12)c1nc(N)sc1Cl (stereo partly drawn) [42/1, (6R,7S,Z)-7-(2-(2-amino-5-chlorothiazol-4-yl)-2-(methoxyimino)acetamido)-8-oxo-3-(2-((pyrrolidin-3-ylthio)methyl)pyridin-3-ylthio)-1-aza-bicyclo[4.2.0]oct-2-ene-2-carboxylic Acid] | – | – | – | – | – | – | – | – | – | –
≤ 1 | – | > 8 | 1 to 8 (≈ 1.84 to 14.7 µM) | ≤ 1 | ≤ 1 | CO/N=C(\C(=O)N[C@@H]1C(=O)N2C(C(=O)O)=C(Sc3nc(C)c(C)s3)CC[C@H]12)c1nc(N)sc1Cl [38/1, (6R,7S,Z)-7-(2-(2-amino-5-chlorothiazol-4-yl)-2-(methoxyimino)acetamido)-3-(4,5-dimethylthiazol-2-ylthio)-8-oxo-1-aza-bicyclo[4.2.0]oct-2-ene-2-carboxylic Acid] | – | – | – | – | – | – | – | – | – | –
≤ 1 | – | > 8 | > 8 | 1 to 8 (≈ 2.02 to 16.2 µM) | > 8 | Nc1nc(/C(=N/O)C(=O)N[C@@H]2C(=O)N3C(C(=O)O)=C(Sc4cccnc4)CC[C@H]23)c(Cl)s1 [34/1, (6R,7S,Z)-7-(2-(2-amino-5-chlorothiazol-4-yl)-2-(hydroxyimino)acetamido)-8-oxo-3-(pyridin-3-ylthio)-1-aza-bicyclo[4.2.0]oct-2-ene-2-carboxylic Acid] | – | – | – | – | – | – | – | – | – | –
≤ 1 | – | 1 to 8 (≈ 1.91 to 15.3 µM) | 1 to 8 (≈ 1.91 to 15.3 µM) | ≤ 1 | ≤ 1 | NCc1ncccc1SC1=C(C(=O)O)N2C(=O)[C@@H](NC(=O)/C(=N\O)c3nc(N)sc3Cl)[C@H]2CC1 [31/1, (6R,7S,Z)-7-(2-(2-amino-5-chlorothiazol-4-yl)-2-(hydroxyimino)acetamido)-3-(2-(aminomethyl)pyridin-3-ylthio)-8-oxo-1-aza-bicyclo[4.2.0]oct-2-ene-2-carboxylic Acid] | – | – | – | – | – | – | – | – | – | –
≤ 1 | – | > 8 | > 8 | 1 to 8 (≈ 1.77 to 14.2 µM) | 1 to 8 (≈ 1.77 to 14.2 µM) | CO/N=C(\C(=O)N[C@@H]1C(=O)N2C(C(=O)O)=C(Sc3cccnc3CSCCN)CC[C@H]12)c1nsc(N)n1 [51/1, (6R,7S,Z)-7-(2-(5-amino-1,2,4-thiadiazol-3-yl)-2-(methoxyimino)acetamido)-3-(2-((2-aminoethylthio)methyl)pyridin-3-ylthio)-8-oxo-1-aza-bicyclo[4.2.0]oct-2-ene-2-carboxylic Acid] | – | – | – | – | – | – | – | – | – | –

SMILES | MIC [1] [µg/mL] | MIC [5, 12] [µg/mL] | MIC [6] [µg/mL] | MIC [9] [µg/mL] | MIC [10] [µg/mL] | MIC [11] [µg/mL] | log kill in CFU count [2] [log kill] | MIC [3] [µg/mL] | T1/2 [4] [h] | Vss [4] [L/kg] | time uncorrected plasma concentrations are above the MIC ([7]; in vivo, 10 mg/kg) [h] | half-life ([7]; plasma, rats, 10 mg/kg IV) [min] | Vd ([7]; plasma, rats, 10 mg/kg IV, read-out: volume of distribution Vss) [L/kg] | log kill (CFU) in thigh ([8]; s.c., lowest dose of 60 mg/kg/day (TID 20 mg/kg/8 h)) [log kill] | efficacy compared with vancomycin ([8]; vancomycin 220 mg/kg/day (BID 110 mg/kg/12 h)) | MIC ([5]; strain used in the infected thigh model (ATCC 33591), read-out: MIC) [µg/mL]
NCCSCc1cnccc1SC1=C(C(=O)O)N2C(=O)[C@@H](NC(=O)/C(=N\O)c3nsc(N)n3)[C@H]2CC1 [48/1, (6R,7S,Z)-7-(2-(5-amino-1,2,4-thiadiazol-3-yl)-2-(hydroxyimino)acetamido)-3-(3-((2-aminoethylthio)methyl)pyridin-4-ylthio)-8-oxo-1-aza-bicyclo[4.2.0]oct-2-ene-2-carboxylic Acid] | ≤ 1 | ≤ 1 | 1 to 8 (≈ 1.82 to 14.5 µM) | 1 to 8 (≈ 1.82 to 14.5 µM) | ≤ 1 | ≤ 1 | – | – | – | – | 2 | 108 | 1.08 | 1 | more effective than vancomycin | 1 (≈ 1.82 µM)
